# From patent US20260217767A1, “NOVEL A4B7 THIOETHER PEPTIDE DIMER ANTAGONISTS” (Protagonist Therapeutics, Inc., priority 2014, published 2026)
# *1 amine or outer side, *2 acyl side, *3 side chain or, on linkers, in order; H or OH if unused. Where a SMILES comes first, the peptide text is derived from it. Bridges are numbered along the chain shown (N, C = ends). [ ]: non-standard residue; d: D form. Phe(4-tBu) = CC(C)(C)c1ccc(C[C@H](N)C(=O)O)cc1; NMeR = CN[C@@H](CCCNC(=N)N)C(=O)O; β3hE = N[C@@H](CCC(=O)O)CC(=O)O; X1 = O=C(c1ccccc1C[*:2])[*:1]; Pen = CC(C)(S)[C@H](N)C(=O)O
# Molecular target: T1, RPMI 8866 cells (Homo sapiens, UniProt P13612+P26010)
# T1 sequence (P13612 34-1032): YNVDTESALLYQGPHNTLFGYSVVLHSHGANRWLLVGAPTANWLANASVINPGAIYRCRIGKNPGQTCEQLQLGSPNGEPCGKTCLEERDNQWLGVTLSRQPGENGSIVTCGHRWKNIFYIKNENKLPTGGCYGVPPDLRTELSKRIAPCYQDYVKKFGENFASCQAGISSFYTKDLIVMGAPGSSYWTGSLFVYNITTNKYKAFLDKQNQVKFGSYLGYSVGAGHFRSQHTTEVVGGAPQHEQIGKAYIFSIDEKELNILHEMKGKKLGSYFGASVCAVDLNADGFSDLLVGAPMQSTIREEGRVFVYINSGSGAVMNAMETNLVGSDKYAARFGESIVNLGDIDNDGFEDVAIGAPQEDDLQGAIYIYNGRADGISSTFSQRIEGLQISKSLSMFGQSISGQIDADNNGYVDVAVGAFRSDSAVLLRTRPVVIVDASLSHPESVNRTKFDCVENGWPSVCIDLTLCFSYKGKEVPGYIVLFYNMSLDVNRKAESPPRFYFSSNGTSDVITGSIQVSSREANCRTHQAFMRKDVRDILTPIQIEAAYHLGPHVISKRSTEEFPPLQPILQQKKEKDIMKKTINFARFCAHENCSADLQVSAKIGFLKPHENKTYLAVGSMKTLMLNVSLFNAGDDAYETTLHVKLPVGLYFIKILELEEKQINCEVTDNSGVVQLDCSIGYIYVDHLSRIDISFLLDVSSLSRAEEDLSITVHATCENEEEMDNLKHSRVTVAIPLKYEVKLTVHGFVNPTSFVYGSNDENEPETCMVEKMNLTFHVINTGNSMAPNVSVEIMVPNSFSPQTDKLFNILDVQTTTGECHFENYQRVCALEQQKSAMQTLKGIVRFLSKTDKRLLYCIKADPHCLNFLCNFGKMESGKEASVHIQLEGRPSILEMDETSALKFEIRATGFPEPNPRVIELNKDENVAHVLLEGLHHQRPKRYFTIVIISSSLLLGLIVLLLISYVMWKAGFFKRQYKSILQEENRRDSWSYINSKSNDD
# T1 sequence (P26010 20-798): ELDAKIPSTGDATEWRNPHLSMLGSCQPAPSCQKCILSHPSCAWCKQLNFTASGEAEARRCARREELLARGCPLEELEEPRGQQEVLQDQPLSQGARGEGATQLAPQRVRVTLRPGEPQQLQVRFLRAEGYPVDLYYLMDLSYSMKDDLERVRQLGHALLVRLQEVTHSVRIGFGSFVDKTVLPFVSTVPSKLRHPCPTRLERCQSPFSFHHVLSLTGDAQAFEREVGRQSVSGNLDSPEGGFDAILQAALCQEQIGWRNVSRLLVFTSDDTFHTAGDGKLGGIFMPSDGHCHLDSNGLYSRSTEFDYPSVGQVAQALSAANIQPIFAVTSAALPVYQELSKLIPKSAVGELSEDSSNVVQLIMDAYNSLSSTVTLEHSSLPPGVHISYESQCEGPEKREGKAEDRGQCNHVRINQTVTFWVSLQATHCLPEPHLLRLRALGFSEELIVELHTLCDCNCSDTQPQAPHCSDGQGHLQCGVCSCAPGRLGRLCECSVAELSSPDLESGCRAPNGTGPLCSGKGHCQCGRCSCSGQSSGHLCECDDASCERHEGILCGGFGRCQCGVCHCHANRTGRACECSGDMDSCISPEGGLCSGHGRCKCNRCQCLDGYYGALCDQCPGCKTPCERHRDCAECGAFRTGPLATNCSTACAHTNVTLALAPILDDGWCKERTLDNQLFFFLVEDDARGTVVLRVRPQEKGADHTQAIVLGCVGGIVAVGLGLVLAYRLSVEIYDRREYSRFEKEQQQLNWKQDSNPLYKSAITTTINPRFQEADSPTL
# Assay: α4β7-MAdCAM Cell Adhesion Assay
# Format: cell-based
# Details: thioether monomer peptides, Table 6; read-out: Cell-Adhesion A4B7
# Protocol: α4β7-MAdCAM Cell Adhesion Assay
# RPMI 8866 cells (Sigma #95041316) were cultured in RPMI 1640 HEPES medium (Invitrogen #22400-089) supplemented with 10% serum (Fetal Bovine Serum, Invitrogen #16140-071), 1 mM sodium pyruvate (Invitrogen #11360-070), 2 mM L-glutamine (Invitrogen #25030-081) and Penicillin-Streptomycin (Invitrogen #15140-122) at 100 units of penicillin and 100 μg of streptomycin per ml. The cells were washed two times in DMEM medium (ATCC #30-2002) supplemented with 0.1% BSA, 10 mM HEPES pH 7 and 1 mM MnCl2. The cells were re-suspended in supplemented DMEM medium at a density of 4×10^6 cells/ml.
# A Nunc MaxiSorp plate was coated with rh MAdCAM-1/Fc Chimera (R&D #6065-MC) at 200 ng per well in 50 ul per well in 1×PBS and incubated at 4° C. overnight. The solution was then removed by shaking, blocked with 250 ul per well PBS containing 1% BSA, and incubated at 37° C. for 1 hr. The solution was removed by shaking. Peptides were diluted by serial dilution in a final volume of 50 ul per well (2× concentration). To each well, 50 ul of cells (200,000 cells) were added and the plate was incubated at 37° C., 5% CO2 for 30-45 min to allow cell adhesion. The wells were washed manually three times (100 ul per wash) with supplemented DMEM. After the final wash, 100 μl/well of supplemented DMEM and 10 ul/well of MTT reagent (ATTC cat #30-1010K) were added. The plate was incubated at 37° C., 5% CO2 for 2-3 hrs until a purple precipitate is visible. 100 ul of Detergent Reagent (ATTC cat #30-1010K) was added to each well. The plate was covered from the light, wrapped in Parafilm to prevent evaporation, and left overnight at room temperature in the dark. The plate was shaken for 5 min and the absorbance at 570 nm is measured. To calculate the dose response, the absorbance value of control wells not containing cells was subtracted from each test well.
row,Compound,IC50
1,CC(C)C[C@@H]1NC(=O)[C@H]([C@@H](C)O)NC(=O)[C@H](CC(=O)O)NC(=O)[C@H](C)NC(=O)[C@H](CCCNC(=N)N)N(C)C(=O)c2ccccc2CSC(C)(C)[C@@H](C(=O)N[C@@H](Cc2ccc(C(C)(C)C)cc2)C(=O)N[C@@H](CCC(=O)O)CC(N)=O)NC1=O [compound 139] ([NMeR]ADTL[Pen][Phe(4-tBu)][β3hE]-NH2; linker N-6 via X1),25 to 100 nM
2,"CC(C)C[C@@H]1NC(=O)[C@H]([C@@H](C)O)NC(=O)[C@H](CC(=O)O)NC(=O)[C@H](CO)NC(=O)[C@H](CCCNC(=N)N)N(C)C(=O)c2cccc(c2)CSC(C)(C)[C@@H](C(=O)N[C@@H](Cc2c[nH]c3ccccc23)C(=O)N[C@H](CCC(=O)O)C(=O)N[C@H](CCCCN)C(N)=O)NC1=O [compound 111] (HELM PEPTIDE1{[meR].S.D.T.L.[Pen].W.[dE].[dK].[am]}|CHEM1{[O=C(c1cccc(C[*:2])c1)[*:1]]}$PEPTIDE1,CHEM1,1:R1-1:R1|PEPTIDE1,CHEM1,6:R3-1:R2$$$V2.0)",> 1000 nM

# Same assay, conditions: thioether peptide dimers, Table 7; read-out: Cell-Adhesion A4B7
row,Compound,IC50
1,181 (RSDTLXWEK; not fully specified; CROSSLINK - N-term 2-Benzyl with a thioether bond between the N-term and the residue at position 6; MOD_RES 1 N-Methyl Arginine; SITE 6 D-Penicillamine; SITE 9 D-Lys; SITE 9 C-term NH2) [compound 181],> 1000 nM
2,"CC(C)C[C@@H]1NC(=O)[C@H]([C@@H](C)O)NC(=O)[C@H](CC(=O)O)NC(=O)[C@H](CO)NC(=O)[C@H](CCCNC(=N)N)N(C)C(=O)c2ccccc2CSC(C)(C)[C@@H](C(=O)N[C@@H](Cc2c[nH]c3ccccc23)C(=O)N[C@H](CCC(=O)O)C(=O)N[C@H](CO)C(=O)N[C@H](CCCCN)C(N)=O)NC1=O [compound 197] (HELM PEPTIDE1{[meR].S.D.T.L.[Pen].W.[dE].[dS].[dK].[am]}|CHEM1{[O=C(c1ccccc1C[*:2])[*:1]]}$PEPTIDE1,CHEM1,1:R1-1:R1|PEPTIDE1,CHEM1,6:R3-1:R2$$$V2.0)",< 25 nM
3,"CC(C)C[C@@H]1NC(=O)[C@H]([C@@H](C)O)NC(=O)[C@H](CC(=O)O)NC(=O)[C@H](CO)NC(=O)[C@H](CCCNC(=N)N)N(C)C(=O)c2ccccc2CSC(C)(C)[C@@H](C(=O)N[C@@H](Cc2c[nH]c3ccccc23)C(=O)N[C@H](CCC(=O)O)C(=O)N[C@@H](Cc2c[nH]cn2)C(=O)N[C@H](CCCCN)C(N)=O)NC1=O [compound 193] (HELM PEPTIDE1{[meR].S.D.T.L.[Pen].W.[dE].H.[dK].[am]}|CHEM1{[O=C(c1ccccc1C[*:2])[*:1]]}$PEPTIDE1,CHEM1,1:R1-1:R1|PEPTIDE1,CHEM1,6:R3-1:R2$$$V2.0)",< 25 nM
4,"CC(C)C[C@@H]1NC(=O)[C@H]([C@@H](C)O)NC(=O)[C@H](CC(=O)O)NC(=O)[C@H](CO)NC(=O)[C@H](CCCNC(=N)N)N(C)C(=O)c2ccccc2CSC(C)(C)[C@@H](C(=O)N[C@@H](Cc2c[nH]c3ccccc23)C(=O)N[C@H](CCC(=O)O)C(=O)N[C@H](CCC(=O)O)C(=O)N[C@H](CCCCN)C(N)=O)NC1=O [compound 200] (HELM PEPTIDE1{[meR].S.D.T.L.[Pen].W.[dE].[dE].[dK].[am]}|CHEM1{[O=C(c1ccccc1C[*:2])[*:1]]}$PEPTIDE1,CHEM1,1:R1-1:R1|PEPTIDE1,CHEM1,6:R3-1:R2$$$V2.0)",< 25 nM
5,CC(C)C[C@@H]1NC(=O)[C@H]([C@@H](C)O)NC(=O)[C@H](CC(=O)O)NC(=O)[C@H](CO)NC(=O)[C@H](CCCNC(=N)N)N(C)C(=O)c2ccccc2CSC(C)(C)[C@@H](C(=O)N[C@@H](Cc2ccc3ccccc3c2)C(=O)N[C@@H](Cc2ccc(-c3ccccc3)cc2)C(=O)N[C@H](CCCCN)C(N)=O)NC1=O [compound 206],> 1000 nM
